Assay results published in the CheMixHub viscosity set.
Where “and” joins values, the source holds several entries; their conditions need not be identical. Equal entries are not always repeated. ± gives the uncertainty stated by the source. Blank lines part the entries; values can stand above or below the molecule they belong to.

- viscosity (298 K, 101.33 kPa): 0.3406 ± 0.0056 mPa·s
SMILES: CCC(C)(C)C

SMILES: CCCC(=O)OCC
- viscosity (303.15 K, 101 kPa): 0.5776 ± 0.0054 mPa·s

- viscosity (298 K, 101.33 kPa): 8.68 ± 0.12 mPa·s
- viscosity (303 K, 101.33 kPa): 7.38 ± 0.1 mPa·s
- viscosity (308 K, 101.33 kPa): 6.32 ± 0.09 mPa·s
- viscosity (313 K, 101.33 kPa): 5.49 ± 0.08 mPa·s
SMILES: CCCC(=O)OCC(COC(=O)CCC)OC(=O)CCC

- viscosity (308.15 K, 101 kPa): 8.206 ± 0.057 mPa·s
SMILES: CCCCC(CC)COP(=O)(OCC(CC)CCCC)OCC(CC)CCCC (configuration not stated)

- viscosity (298.15 K, 100 kPa): 2.112 ± 0.026 mPa·s
SMILES: CCCCCCCCCC(=O)OCC

SMILES: CCCCN
- viscosity (293.15 K, 101 kPa): 0.55 ± 0.01 mPa·s and 0.523 ± 0.003 mPa·s
- viscosity (298.15 K, 100 kPa): 0.468 ± 0.01 mPa·s
- viscosity (298.15 K, 101 kPa): 0.48 ± 0.003 mPa·s and 0.474 ± 0.013 mPa·s
- viscosity (303.15 K, 100 kPa): 0.458 ± 0.01 mPa·s
- viscosity (308.15 K, 101.33 kPa): 0.412 ± 0.0038 mPa·s
- viscosity (313.15 K, 100 kPa): 0.398 ± 0.009 mPa·s
- viscosity (313.15 K, 101 kPa): 0.401 ± 0.002 mPa·s and 0.3922 ± 0.0051 mPa·s and 0.3891 ± 0.0052 mPa·s
- viscosity (313.15 K, 101.33 kPa): 0.3891 ± 0.0052 mPa·s and 0.3887 ± 0.0036 mPa·s and 0.397 ± 0.004 mPa·s
- viscosity (318.15 K, 101 kPa): 0.3695 ± 0.0049 mPa·s
- viscosity (318.15 K, 101.33 kPa): 0.3676 ± 0.0035 mPa·s
- viscosity (323.15 K, 100 kPa): 0.353 ± 0.008 mPa·s
- viscosity (323.15 K, 101 kPa): 0.3491 ± 0.0046 mPa·s
- viscosity (323.15 K, 101.33 kPa): 0.3486 ± 0.0033 mPa·s and 0.355 ± 0.004 mPa·s

SMILES: CC[N+](=O)[O-]
- viscosity (293.15 K, 101.33 kPa): 0.68 ± 0.007 mPa·s and 0.679 ± 0.006 mPa·s and 0.679 ± 0.014 mPa·s
- viscosity (298.15 K, 101.33 kPa): 0.638 ± 0.006 mPa·s
- viscosity (303.15 K, 101 kPa): 0.5737 ± 0.015 mPa·s
- viscosity (303.15 K, 101.33 kPa): 0.605 ± 0.005 mPa·s and 0.605 ± 0.013 mPa·s
- viscosity (308.15 K, 101 kPa): 0.5507 ± 0.015 mPa·s
- viscosity (313.15 K, 101.33 kPa): 0.544 ± 0.005 mPa·s and 0.544 ± 0.011 mPa·s
- viscosity (318.15 K, 101 kPa): 0.5009 ± 0.013 mPa·s

- viscosity (298.15 K, 100 kPa): 1.93 ± 0.1 mPa·s
- viscosity (298.15 K, 101 kPa): 1.933 ± 0.098 mPa·s
- viscosity (308.15 K, 100 kPa): 1.59 ± 0.08 mPa·s
- viscosity (308.15 K, 101 kPa): 1.594 ± 0.081 mPa·s
- viscosity (318.15 K, 100 kPa): 1.34 ± 0.07 mPa·s
- viscosity (318.15 K, 101 kPa): 1.343 ± 0.068 mPa·s
SMILES: CCn1ccnc1

- viscosity (298.15 K, 101.33 kPa): 0.86 ± 0.011 mPa·s
SMILES: Cc1ccncc1

SMILES: O=C(O)C(Cl)(Cl)Cl
- viscosity (323.15 K, 101 kPa): 4.824 ± 0.2 mPa·s (2×) and 5.323 ± 0.069 mPa·s and 4.797 ± 0.12 mPa·s

SMILES: [Cl-].[Cl-].[Cl-].[Sb+3]
- viscosity (323.15 K, 101 kPa): 3.926 ± 0.16 mPa·s
